Data published in US4597900A, “Des^2 -glycine^8 -des^22 -calcitonin” (Armour Pharmaceutical Co., priority 1983, dated 1986).
Where a SMILES comes first, the peptide text is derived from it. Bridges are numbered along the chain shown (N, C = ends).

Test system: serum calcium concentration
Assay: Biological assay of calcitonin analogs in vivo: reduction of serum calcium concentration, 2x2 parallel line assay
Set-up: species or system Rats
Description: The biological potency of [Des-Serine^2 -Glycine^8 -Des-Tyrosine^22 ]salmon calcitonin was determined by comparing the reduction of serum calcium concentration which followed administration by graded doses of [Des-Ser^2 -Gly^8 -Des-Tyr^22 ]SCT and synthetic salmon calcitonin standard. Rats were divided into four groups of seven animals, and each group was assigned at random to a dose of standard or test solution. Low and high doses were chosen from the linear portion of the dose-response curve. For the salmon calcitonin standard, the values were 0.7 and 2.1 ng. peptide/100 g. body weight (BW). This dose approximates 3 and 9 MU/100 g. BW. Peptides were given by subcutaneous injection (0.2 ml/100 g. BW) and blood was withdrawn 1 hour later for serum calcium determination. Sera are processed and analyzed within two hours of collection. […]. Results were analyzed by a 2×2 parallel line assay [Gaddum, J. H., J. Pharm. Pharmacol., 6, 345 (1953)]. The standard salmon calcitonin used was independently determined to contain greater than 4,000 IU/mg. [Des-Ser^2 -Gly^8 -Des-Tyr^22 ]SCT assayed at 6900 IU/mg.

Compound	biological potency (reduction of serum calcium concentration) (rats, subcutaneous injection, blood withdrawn 1 hour later, compared with synthetic salmon calcitonin standard) [IU/mg]	potency of standard, independently determined (standard salmon calcitonin used in the assay)
CC(C)C[C@H](NC(=O)CNC(=O)[C@@H]1CSSC[C@H](N)C(=O)N[C@@H](CC(N)=O)C(=O)N[C@@H](CC(C)C)C(=O)N[C@@H](CO)C(=O)N[C@@H]([C@@H](C)O)C(=O)N1)C(=O)NCC(=O)N[C@@H](CCCCN)C(=O)N[C@@H](CC(C)C)C(=O)N[C@@H](CO)C(=O)N[C@@H](CCC(N)=O)C(=O)N[C@@H](CCC(=O)O)C(=O)N[C@@H](CC(C)C)C(=O)N[C@@H](Cc1c[nH]cn1)C(=O)N[C@@H](CCCCN)C(=O)N[C@@H](CC(C)C)C(=O)N[C@@H](CCC(N)=O)C(=O)N[C@H](C(=O)N1CCC[C@H]1C(=O)N[C@@H](CCCNC(=N)N)C(=O)N[C@H](C(=O)N[C@@H](CC(N)=O)C(=O)N[C@H](C(=O)NCC(=O)N[C@@H](CO)C(=O)NCC(=O)N[C@H](C(=O)N1CCC[C@H]1C(N)=O)[C@@H](C)O)[C@@H](C)O)[C@@H](C)O)[C@@H](C)O [[Des-Ser^2 -Gly^8 -Des-Tyr^22]SCT, [Des-Serine^2 -Glycine^8 -Des-Tyrosine^22]salmon calcitonin] (H-CNLSTCGLGKLSQELHKLQTPRTNTGSGTP-NH2; disulfide 1-6)	6900	
CC(C)C[C@H](NC(=O)[C@H](CCCCN)NC(=O)CNC(=O)[C@H](CC(C)C)NC(=O)[C@@H](NC(=O)[C@@H]1CSSC[C@H](N)C(=O)N[C@@H](CO)C(=O)N[C@@H](CC(N)=O)C(=O)N[C@@H](CC(C)C)C(=O)N[C@@H](CO)C(=O)N[C@@H]([C@@H](C)O)C(=O)N1)C(C)C)C(=O)N[C@@H](CO)C(=O)N[C@@H](CCC(N)=O)C(=O)N[C@@H](CCC(=O)O)C(=O)N[C@@H](CC(C)C)C(=O)N[C@@H](Cc1c[nH]cn1)C(=O)N[C@@H](CCCCN)C(=O)N[C@@H](CC(C)C)C(=O)N[C@@H](CCC(N)=O)C(=O)N[C@H](C(=O)N[C@@H](Cc1ccc(O)cc1)C(=O)N1CCC[C@H]1C(=O)N[C@@H](CCCNC(=N)N)C(=O)N[C@H](C(=O)N[C@@H](CC(N)=O)C(=O)N[C@H](C(=O)NCC(=O)N[C@@H](CO)C(=O)NCC(=O)N[C@H](C(=O)N1CCC[C@H]1C(N)=O)[C@@H](C)O)[C@@H](C)O)[C@@H](C)O)[C@@H](C)O [standard salmon calcitonin, Salmon calcitonin]		greater than 4,000 IU/mg
